Source: article PMC4965013, “Open Source Drug Discovery with the Malaria Box Compound Collection for Neglected Diseases and Beyond” (PLoS Pathogens, 2016)
pEC50: −log10 of the molar value.

What was measured:
P. falciparum = assay: EC50 listed in S2 Table Metabolomics (used to set the concentration tested); assay type: cell-based; details: Plasmodium falciparum; EC50 used for Factor_XEC50 in metabolomics; read-out: EC50_nM
[1] = tested on: P. falciparum 3D7 trophozoites; assay: Metabolomic fingerprint profiling LC-MS; assay type: cell-based, Plasmodium falciparum; set-up: UDP-D-glucose / ADP-D-glucose: unit not given here
[2] = metabolite level change after treatment

COc1ccc(-n2ccnc2SCC(=O)Nc2cc(C)ccc2C)c(OC)c1 [MMV019258]
pEC50 (P. falciparum): 6.77
Acetyllysine ([1]; S2 Table Metabolomics, metabolite Acetyllysine): -0.6249
N-acetyl-L-ornithine ([1]; S2 Table Metabolomics, metabolite N-acetyl-L-ornithine): -0.6242
N-carbamoyl-L-aspartate ([1]; S2 Table Metabolomics, metabolite N-carbamoyl-L-aspartate): 3.802
NADPH ([1]; S2 Table Metabolomics, metabolite NADPH): -0.4851
dAMP ([1]; S2 Table Metabolomics, metabolite dAMP): -1.834
dCMP ([1]; S2 Table Metabolomics, metabolite dCMP): 0.07117
dTDP ([1]; S2 Table Metabolomics, metabolite dTDP): -1.878
dTMP ([1]; S2 Table Metabolomics, metabolite dTMP): -1.688
dTTP ([1]; S2 Table Metabolomics, metabolite dTTP): -1.338
dihydroorotate ([1]; S2 Table Metabolomics, metabolite dihydroorotate): 5.204
orotate ([1]; S2 Table Metabolomics, metabolite orotate): -0.1277
DLH ([1]; S2 Table Metabolomics, peptide DLH): -0.04693
DLS/SDL/SID ([1]; S2 Table Metabolomics, peptide DLS/SDL/SID): -0.2869
PD ([1]; S2 Table Metabolomics, peptide PD): -0.04264
PEE ([1]; S2 Table Metabolomics, peptide PEE): -0.4454
PVNF ([1]; S2 Table Metabolomics, peptide PVNF): -2.048
3-phosphoglycerate ([1]; metabolite 3-phosphoglycerate, S2 Table Metabolomics): 0.6242
ADP-D-glucose ([1]; metabolite ADP-D-glucose, S2 Table Metabolomics): 0.3573
ATP ([1]; metabolite ATP, S2 Table Metabolomics): 0.2564
CDP ([1]; metabolite CDP, S2 Table Metabolomics, change in metabolite level after compound treatment): -1.841
D-sedoheptulose-1/7-phosphate ([1]; metabolite D-sedoheptulose-1/7-phosphate, S2 Table Metabolomics, change in metabolite level after compound treatment): -1.029
FAD ([1]; metabolite FAD, S2 Table Metabolomics): 0.0674
GMP ([1]; metabolite GMP, S2 Table Metabolomics, change in metabolite level after compound treatment): 1.676
NAD+ ([1]; metabolite NAD+, S2 Table Metabolomics): 0.1657
NADP+ ([1]; metabolite NADP+, S2 Table Metabolomics): 0.1196
Octoluse Bisphosphate ([1]; metabolite Octoluse Bisphosphate, S2 Table Metabolomics, change in metabolite level after compound treatment): -0.03706
Pyroglutamic acid ([1]; metabolite Pyroglutamic acid, S2 Table Metabolomics): 0.9996
UDP-D-glucose ([1]; metabolite UDP-D-glucose, S2 Table Metabolomics): 0.07144
UDP-D-glucuronate ([1]; metabolite UDP-D-glucuronate, S2 Table Metabolomics): -0.1808
UDP-N-acetyl-glucosamine ([1]; metabolite UDP-N-acetyl-glucosamine, S2 Table Metabolomics): -0.2701
UDP ([1]; metabolite UDP, S2 Table Metabolomics, change in metabolite level after compound treatment): -2.466
UMP ([1]; metabolite UMP, S2 Table Metabolomics, change in metabolite level after compound treatment): -0.6353
UTP ([1]; metabolite UTP, S2 Table Metabolomics, change in metabolite level after compound treatment): -1.944
a-ketoglutarate ([1]; metabolite a-ketoglutarate, S2 Table Metabolomics): 0.866
citrate/isocitrate ([1]; metabolite citrate/isocitrate, S2 Table Metabolomics, change in metabolite level after compound treatment): 0.4908
cytidine ([1]; metabolite cytidine, S2 Table Metabolomics): 0.5413
dATP ([1]; metabolite dATP, S2 Table Metabolomics): 0.5274
dGMP/AMP ([1]; metabolite dGMP/AMP, S2 Table Metabolomics, change in metabolite level after compound treatment): -0.3361
fumarate ([1]; metabolite fumarate, S2 Table Metabolomics, change in metabolite level after compound treatment): 0.3957
glucose-1/6-phosphate ([1]; metabolite glucose-1/6-phosphate, S2 Table Metabolomics, change in metabolite level after compound treatment): 0.221
glycerate ([1]; metabolite glycerate, S2 Table Metabolomics, change in metabolite level after compound treatment): 0.7468
guanine ([1]; metabolite guanine, S2 Table Metabolomics, change in metabolite level after compound treatment): 0.4637
guanosine ([1]; metabolite guanosine, S2 Table Metabolomics, change in metabolite level after compound treatment): 0.7901
hypoxanthine ([1]; metabolite hypoxanthine, S2 Table Metabolomics): 1.05
indole ([1]; metabolite indole, S2 Table Metabolomics): 0.5756
inosine ([1]; metabolite inosine, S2 Table Metabolomics, change in metabolite level after compound treatment): 0.8159
2_3-Diphosphoglyceric acid [1, 2]: -0.06901
4-phosphopantothenate [1, 2]: -0.2542
6-phospho-D-gluconate [1, 2]: 0.0357
FMN [1, 2]: -0.006391
IMP [1, 2]: 0.3439
Pyrophosphate [1, 2]: -0.1345
Sedoheptoluse bisphosphate [1, 2]: -0.0261
cyclic-AMP [1, 2]: -0.1381
glutathione disulfide [1, 2]: -0.07054
lactate [1, 2]: 0.415
myo-inositol [1, 2]: -0.225
nicotinate ([1]; metabolite nicotinate, S2 Table Metabolomics): 0.9606
ornithine ([1]; metabolite ornithine, S2 Table Metabolomics): 0.46
phosphoenolpyruvate ([1]; metabolite phosphoenolpyruvate, S2 Table Metabolomics): 0.911
pyruvate ([1]; metabolite pyruvate, S2 Table Metabolomics, change in metabolite level after compound treatment): 0.8605
ribose-phosphate ([1]; metabolite ribose-phosphate, S2 Table Metabolomics): 0.2278
sarcosine/alanine ([1]; metabolite sarcosine/alanine, S2 Table Metabolomics, change in metabolite level after compound treatment): 0.199
sn-glycerol-3-phosphate ([1]; metabolite sn-glycerol-3-phosphate, S2 Table Metabolomics): 0.01743
succinate/methylmalonic acid ([1]; metabolite succinate/methylmalonic acid, S2 Table Metabolomics, change in metabolite level after compound treatment): 0.09628
uridine ([1]; metabolite uridine, S2 Table Metabolomics, change in metabolite level after compound treatment): 0.32
xanthosine ([1]; metabolite xanthosine, S2 Table Metabolomics, change in metabolite level after compound treatment): 1.135
